Patent publication EP1311531B1, “STEROID DERIVED ANTIBIOTICS” (Brigham Young University, priority 2000, dated 2002)
In brackets after ≈: the same amount, converted by molar mass. Read-outs that look alike come from different tables or passages of the source.

How the values were obtained:
[1] = system: Enterococcus faeculis ATCC 29212; assay: MIC and MBC measurement; format: cell-based, Enterococcus faecalis; details: ATCC29212
Description: General: Microorganisms. Reference strains were purchased from the American Type Culture Collection (Rockville, MD) or Bactrol disks from Difeo Laboratories (Detroit, MI). […] Bacterial strains were maintained on Mueller-Hinton agar plates, and Candida albicans was maintained on Sabouraud Dextrose agar plates.
Aliquots (20 mL) of the homogeneous solution were then poured in sterile plastic petri dishes (100 x 15 mm, Fisher Scientific). Solutions of compounds were made by dissolving the HCl salt of the respective compound into an appropriate amount of deionized and sterilized water followed by microfiltration.
Aliquots of 1 mL of the suspension were added to test tubes containing 1 mL TSB and incrementally varied concentrations of cholic acid derivatives and/or erythromycin or novobiocin. […] Additionally, an alliquot from each of the samples showing no measurable turbidity was subcultured on TSA plates (alliquots were diluted to provide fewer than 300 CFU). Colonies that grew on the subculture after overnight incubation were counted and the number of CFU/mL in the samples were calculated. The calculated values were compared to the number of CFU/mL in the original inoculum.

[2] = Minimum hemolytic concentration (MHC); format: cell-based; details: Table 10
Description: Minimum inhibition concentrations (MIC) and minimum hemolytic concentrations (MHC) were measured as described in Li et al., Antimicrob. Agents. Chemother., 1999, 43, 1347. […]

E. coli (ATCC 10798) [3] = assay: Sensitization to erythromycin or novobiocin (outer membrane permeabilization, FIC); format: cell-based, Escherichia coli; details: Table 9; Escherichia coli (ATCC 10798)
Method in brief: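 E. coli in TSB received cholic acid derivatives, then erythromycin or novobiocin 15 minutes later, in checkerboard titration, stationary at 37°C for 24 hours. Turbidity was read at 760 nm; clear samples were subcultured on TSA for CFU/mL versus inoculum. FIC = sum of MIC-in-combination/MIC-alone ratios for compound and antibiotic.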

[4] = system: Escherichia coli ATCC 25922; assay: Sensitization to erythromycin, novobiocin or rifampicin (permeabilization, FIC); details: Table 13; with rifampicin (order of b151); Escherichia coli ATCC 25922
Description: (§2) FICs can be performed by checkerboard titrations of compounds in one dimension of a microtiter plate, and of antibiotics in the other dimension, for example. The FIC is calculated by looking at the impact of one antibiotic on the MIC of the other and vice versa. […] As used herein, FIC can be determined as follows: FIC = (MIC(compound in combination))/(MIC(compound alone)) + (MIC(antibiotic in combination))/(MIC(antibiotic alone)) [formula]
(§3) Concentrations of 0.5, 1.0 or 3.0 µg/mL of these antibiotics were used, and the concentrations of the cholic acid derivatives required to inhibit bacterial growth of Gram-negative strains were determined.

[5] = system: Escherichia coli ATCC 25922; details: ATCC25922
Description: as §2, §3

[6] = system: Candida albicans ATCC 90028; assay: MIC and MBC measurement; format: cell-based; details: ATCC90028, Table 10
Method in brief: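 MIC taken as absence of turbidity in TSB tubes holding graded compound levels; MBC judged by comparing CFU/mL from TSA subcultures of clear samples against starting inoculum. Test agents were water-dissolved, filtered HCl salts, combined in some tubes with erythromycin or novobiocin.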

[7] = system: Salmonella typhimurium ATCC 14028; assay: MIC and MBC measurement; format: cell-based; details: Salmonella enterica
Method in brief: (§1)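 Strains on Mueller-Hinton agar. Cholic acid derivative HCl salts in sterile water, filtered. TSB tube dilutions ± erythromycin/novobiocin; MIC by turbidity; MBC via TSA subculture CFU counts vs inoculum.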

[8] = system: Pseudomonas aeruginosa ATCC 27853; assay: MIC and MBC measurement; format: cell-based; details: ATCC27853, Table 10, Pseudomonas aeruginosa ATCC 27853
Method in brief: as §1

[9] = system: Klebsiella pneumonia ATCC 13883; assay: MIC and MBC measurement; format: cell-based; details: Klebsiella pneumoniae, ATCC13883
Method in brief: as §1

[10] = system: Streptococcus pyogenes ATCC 19615; assay: MIC and MBC measurement; format: cell-based; details: ATCC19615, Table 10
Method in brief: as §1

[11] = system: Klebsiella pneumonia ATCC 13883; assay: Sensitization to erythromycin, novobiocin or rifampicin (permeabilization, FIC); format: cell-based, Klebsiella pneumoniae
E. coli (ATCC 10798) [12] = assay: MIC and MBC measurement; format: cell-based, Escherichia coli; details: ATCC10798, Table 9, Escherichia coli (ATCC 10798); for MBC: read-out: MBC; for MIC: read-out: MIC
Method in brief: as §1

[13] = Table 12, with novobiocin (order of b151), Klebsiella pneumonia ATCC 13883
[14] = Table 13, with rifampicin (order of b151), Klebsiella pneumonia ATCC 13883

| Compound | MBC [1] | MIC [1] | MHC [2] | (a) Concentration required to lower the MIC of erythromycin from 70 to 1 µg/mL (E. coli (ATCC 10798) [3]) | (b) MBC with 1 µg/mL erythromycin (E. coli (ATCC 10798) [3]) | (d) Concentration required to lower the MIC of novobiocin from >500 to 1 µg/mL (E. coli (ATCC 10798) [3]) | FIC^c (FIC values with erythromycin) (E. coli (ATCC 10798) [3]) | FIC^c (FIC values with novobiocin) (E. coli (ATCC 10798) [3]) | FIC [4] | concentration required for bacterial growth inhibition [4] | concentration required for bacterial growth inhibition [5] | MBC [6] | MIC [6] | MBC [7] | MIC [7] | MBC [8] | MIC [8] | MBC [9] | MIC [9] | MBC [10] | also measured |
| --- | --- | --- | --- | --- | --- | --- | --- | --- | --- | --- | --- | --- | --- | --- | --- | --- | --- | --- | --- | --- | --- |
| C[C@]12CC[C@@H](OCCCN)C[C@H]1C[C@@H](OCCCN)[C@@H]1[C@@H]2C[C@H](OCCCN)[C@]2(C)[C@@H](O)CC[C@@H]12 [Compound 106] | > 100 µg/mL | 12 µg/mL (≈ 24.2 µM) | >100 µg/mL | 30 µg/mL | 160 µg/mL | 50 µg/mL | 0.23 | 0.36 | 0.12 | 4.2 µg/mL | 4.7 µg/mL | 92 µg/mL (≈ 186 µM) | 75 µg/mL (≈ 151 µM) | > 100 µg/mL | > 100 µg/mL | 97 µg/mL (≈ 196 µM) | 85 µg/mL (≈ 171 µM) | 100 µg/mL (≈ 202 µM) | > 100 µg/mL | 37 µg/mL (≈ 74.6 µM) | MIC [10]: 18 µg/mL (≈ 36.3 µM); FIC ([11]; ATCC13883): 0.66; concentration required for bacterial growth inhibition ([11]; ATCC13883): 3.6 µg/mL; concentration required for bacterial growth inhibition [11, 13]: 8.9 µg/mL; FIC [11, 14]: 0.044; concentration required for bacterial growth inhibition [11, 14]: 1.8 µg/mL; MBC (E. coli (ATCC 10798) [12]): > 200 µg/mL; MIC (E. coli (ATCC 10798) [12]): 140 µg/mL (≈ 282 µM) |
| CCCOCCC[C@@H](C)[C@H]1CC[C@H]2[C@@H]3[C@H](OCCCN)C[C@@H]4C[C@H](OCCCN)CC[C@]4(C)[C@H]3C[C@H](OCCCN)[C@]12C [Compound 112] | 4.7 µg/mL (≈ 7.73 µM) | 3.1 µg/mL (≈ 5.1 µM) | 5.9 µg/mL | 0.4 µg/mL | 4.0 µg/mL | 0.8 µg/mL | 0.048 | 0.085 | 0.19 | 0.81 µg/mL | 0.40 µg/mL | 45 µg/mL (≈ 74 µM) | 41 µg/mL (≈ 67.4 µM) | 90 µg/mL (≈ 148 µM) | 86 µg/mL (≈ 141 µM) | 6.4 µg/mL (≈ 10.5 µM) | 4.6 µg/mL (≈ 7.57 µM) | 27 µg/mL (≈ 44.4 µM) | 23 µg/mL (≈ 37.8 µM) | 3 µg/mL (≈ 4.93 µM) | MIC [10]: 2.4 µg/mL (≈ 3.95 µM); FIC ([11]; ATCC13883): 0.035; concentration required for bacterial growth inhibition ([11]; ATCC13883): 0.1 µg/mL; concentration required for bacterial growth inhibition [11, 13]: 0.19 µg/mL; FIC [11, 14]: 0.031; concentration required for bacterial growth inhibition [11, 14]: 0.11 µg/mL; MBC (E. coli (ATCC 10798) [12]): 17 µg/mL (≈ 28 µM); MIC (E. coli (ATCC 10798) [12]): 12 µg/mL (≈ 19.7 µM) |
